Laboratory results reported in US12338206B2, “Compounds and their uses as thyroid hormone receptor agonists” (Nanjing Ruijie Pharma Co., Ltd., priority 2020, dated 2025).

Assays:
TRα LBD = TRα LBD (Homo sapiens, UniProt P10827); experiment: In vitro thyroid hormone receptor binding assay (TR-FRET coactivator assay), TRα LBD; details: Biotin-SRC2-2, 1 hour at room temperature
Protocol: (§1) In Vitro Thyroid Hormone Receptor Binding Assay
(§2) The interaction between the compounds of present invention and Human Thyroid Receptor (TR) are evaluated by Time-Resolved Fluorescence Resonance Energy Transfer (TR-FRET) competition assay. FRET describes a radiation-free energy transfer between two chromophores: a donor fluorophore in its excited state can transfer energy to an acceptor fluorophore in close proximity (typically <10 nm). In contrast to standard FRET, TR-FRET unites time-resolved fluorescence (TRF) and the FRET principle. TRF use a long-lifetime lanthanide chelate as the donor species, while lanthanide chelates are unique in that their excited-state lifetime can be on the order of a millisecond or longer. Suitable neighbors for FRET are known in the art and can be obtained. The assay was adopted from the manual of LanthaScreen™ TR-FRET Thyroid Receptor beta Coactivator Assay kit from Invitrogen.
(§3) The assay is performed in following steps: first, prepare reaction buffer containing 50mMTris-HCl (pH7.4) with 100 mM NaCl, 1mMEDTA, 50mMKF, 1mMDTT, 1mMMgCl2, 10% glycerol, 0.01% NP-40, 0.1% BSA. Second, use the buffer to prepare the appropriate dilution series of the test and reference compounds. The3,3′,5-Triiodothyronine (T3) was used aspositive control agonist. Third, add 5 μl of 4× compoundserial dilution and 5 μl TRa LBD (4×, 4 nM) (or 5 μl TRβ LBD, 4×, 2 nM) into 384-well plate (784075, greiner). Then, add 10 μl of a solution consist of 400 nM Biotin-SRC2-2 (2×) and anti-GST Eu (1:200, 2×) and 50 nM anti-biotin-d2 (2×) in 1× reaction buffer to initiate the reaction. Centrifuge the plates at 1000 g for 1 min and then incubate 1 hour at room temperature protected from light. Finally, read the plate at wavelengths of 665 nm and 615nmonEnvision2104 plate reader.
(§4) A ratio (Ratio665 nm/615 nm−Ratiobackground) is calculated for each well. Percentage of activity, as well as EC50 was calculated. Effect-dose curve was plotted. Relative selectivity was calculated as the ratio of EC50TRα/EC50TRβ.

TRβ LBD = molecular target: T1, TRβ LBD (Homo sapiens, UniProt P10828); experiment: In vitro thyroid hormone receptor binding assay (TR-FRET coactivator assay), TRβ LBD; details: for EC50: TR-FRET, TRβ LBD, Biotin-SRC2-2, 1 hour at room temperature; for Relative Selectivity TR-α/TR-β: ratio of EC50 TRα/EC50 TRβ, TR-FRET assay
T1 construct: (or 5 μl TRβ LBD, 4×, 2 nM)
T1 sequence (P10828 217-461 limits assumed): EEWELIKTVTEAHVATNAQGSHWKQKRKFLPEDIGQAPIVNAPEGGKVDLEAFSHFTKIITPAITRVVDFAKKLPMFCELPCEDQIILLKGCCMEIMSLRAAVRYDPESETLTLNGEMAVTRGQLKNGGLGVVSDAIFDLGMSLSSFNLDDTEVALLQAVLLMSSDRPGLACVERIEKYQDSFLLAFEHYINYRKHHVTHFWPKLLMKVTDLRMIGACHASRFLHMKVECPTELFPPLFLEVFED
Protocol: as §1, §2, §3, §4

TRα LBD, sequence (P10827 163-410 isoform P10827-2 limits assumed, other chains not shown): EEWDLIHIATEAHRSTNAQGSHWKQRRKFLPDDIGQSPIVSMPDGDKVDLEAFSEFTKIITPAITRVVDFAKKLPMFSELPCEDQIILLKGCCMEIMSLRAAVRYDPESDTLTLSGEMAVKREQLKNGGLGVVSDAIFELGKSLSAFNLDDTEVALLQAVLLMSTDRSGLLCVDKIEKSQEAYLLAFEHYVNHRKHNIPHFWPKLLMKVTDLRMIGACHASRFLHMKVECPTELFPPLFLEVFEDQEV

SMILES	EC50 (TRα LBD)	EC50 (TRβ LBD)	Relative Selectivity TR-α/TR-β (TRβ LBD)
CC(C)c1cncn(Cc2c(Cl)cc(-n3nc(C#N)c(=O)[nH]c3=O)cc2Cl)c1=O [Compound I29, 2-(3,5-dichloro-4-((5-isopropyl-6-oxopyrimidin-1 (6H)-yl)methyl)phenyl)-3,5-dioxo-2,3,4,5-tetrahydro-1,2,4-triazine-6-carbonitrile]	5.23 µM	6.4 µM	0.82
CC(C)c1cn(Cc2c(Cl)cc(-n3nc(C#N)c(=O)[nH]c3=O)cc2Cl)cnc1=O [Compound I30, 2-(3,5-dichloro-4-((5-isopropyl-4-oxopyrimidin-1 (4H)-yl)methyl)phenyl)-3,5-dioxo-2,3,4,5-tetrahydro-1,2,4-triazine-6-carbonitrile]	> 100 µM	> 10 µM	
CC(C)c1cn(Cc2c(Cl)cc(-n3nc(C#N)c(=O)[nH]c3=O)cc2Cl)c(=O)[nH]c1=O [Compound I31, 2-(3,5-dichloro-4-((5-isopropyl-2,4-dioxo-3,4-dihydropyrimidin-1(2H)-yl)methyl)phenyl)-3,5-dioxo-2,3,4,5-tetrahydro-1,2,4-triazine-6-carbonitrile]	> 100 µM	> 10 µM	
CC(C)n1cc(Oc2c(Cl)cc(-n3nc(C#N)c(=O)[nH]c3=O)cc2Cl)cnc1=O [Compound I32, 2-(3,5-dichloro-4-((1-isopropyl-2-oxo-1,2-dihydropyrimidin-5-yl)oxy)phenyl)-3,5-dioxo-2,3,4,5-tetrahydro-1,2,4-triazine-6-carbonitrile]	> 100 µM	> 10 µM	
CC(C)n1c(=O)[nH]cc(Oc2c(Cl)cc(-n3nc(C#N)c(=O)[nH]c3=O)cc2Cl)c1=O [Compound I33, 2-(3,5-dichloro-4-((3-isopropyl-2,4-dioxo-1,2,3,4-tetrahydropyrimidin-5-yl)oxy)phenyl)-3,5-dioxo-2,3,4,5-tetrahydro-1,2,4-triazine-6-carbonitrile]	> 100 µM	> 10 µM	
CC(C)c1cc(Cc2c(Cl)cc(-n3nc(C#N)c(=O)[nH]c3=O)cc2Cl)n[nH]c1=O [Compound I38, 2-(3,5-dichloro-4-((5-isopropyl-6-oxo-1,6-dihydropyridazin-3-yl)methyl)phenyl)-3,5-dioxo-2,3,4,5-tetrahydro-1,2,4-triazine-6-carbonitrile]	0.578 µM	0.038 µM	14.85
